# Tests used:
# [1] = system: rat red blood cells; experiment: S-nitrosylation of intraerythrocytic Hb (loading of red blood cells); format: cell-based; conditions: oxygenated rat red blood cells
# Method: Given that Hb is largely contained within red blood cells, potential mechanisms by which S-nitrosylation of intracellular protein might occur were explored. […] Rapid oxidation of Hb was not observed under these conditions. […] Thus, erythrocyte access of RSNOs is thiol group specific.
# Incubation of rat erythrocytes with S-nitrosocysteine (equimolar to heme (5 mM); phosphate buffer pH 7.4, 25° C.) leads to rapid formation of intracellular SNO-Hb(FeII)O2. […] By 60 min, 3 of the 4 available SH groups of Hb are S-nitrosylated (note that rat Hb contains 4 reactive SH groups). […] Spectrum A is that of SNO-Hb isolated from erythrocytes following G-25 chromatography. Treatment of A with dithionite results in reduction of the S—NO moiety, liberating free NO which is autocaptured by deoxy Hb, forming Hb(FeII)NO (note that dithionite simultaneously deoxygenates Hb) (spectrum C). […] The spectrum of Hb(FeII)NO containing 4 NO's per tetramer is shown for comparison (inset, spectrum B).
# At shown intervals, red blood cells were pelleted rapidly by centrifugation, washed three times, lysed in deionized water at 4° C., and the cytosolic fraction subjected to rapid desalting across G-25 columns. Intracellular SNO-Hb was measured by the method of Saville (Gaston, B., et al., (1992); Stamler, J. S., et al., Proc. Natl. Acad. Sci. USA, 89:444-448 (1992)), and confirmed spectroscopically (inset of FIG. 3A) as described above.
# [2] = system: rabbit thoracic aorta rings; experiment: Oxygen-dependent rabbit aortic ring bioassay of Hb, SNO-Hb, GSNO and SNO-RBCs
# [3] = system: Sprague-Dawley rats; experiment: Local cerebral blood flow by H2-sensitive microelectrodes; format: in vivo, rat; conditions: for local cerebral blood flow: 1 μmol/kg infused over 3 minutes
# Method: Adult male Sprague-Dawley rats (290-350 g) were anesthetized with sodium pentobarbital (50 mg/kg IP), intubated and ventilated with a small animal respirator (Edco Scientific Inc., Chapel Hill, N.C.) at a rate and tidal volume to maintain normal values of PaCO2 (35-45 mm Hg; PaCO2=systemic arterial blood carbon dioxide tension). The femoral vein and artery were cannulated for infusion of drugs and for continuous monitoring of systemic blood pressure, respectively. Aliquots of arterial blood (200 μl) were drawn periodically to measure blood gas tensions and pH (Instrumentation Laboratory Co., model 1304 blood gas/pH analyzer). The blood was replaced intravenously with three volumes of normal saline. The inspired O2 concentration was varied using premixed gases balanced with nitrogen. The tissue PO2 was measured continuously with polarographic platinum microelectrodes (50 μm O.D. coated with hydrophobic gas permeable Nafion) implanted stereotaxically in both the right and left hippocampus (AP−3.4 mm, ML+2.2 mm), caudate putamen nucleus and substantia nigra (see coordinates below) (Young, W., Stroke, 11:552-564 (1980); Heiss, W. D. and Traupett, H., Stroke, 12:161-167 (1981); Dewhirst, M. W. et al., Cancer Res., 54:3333-3336 (1994); Kerger, H. et al., Am. J. Physiol., 268:H802-H810 (1995)). The PO2 electrodes were polarized to −0.65V against a distant Ag/AgCl reference located on the tail and the current flow was measured using a low-impedance nA-meter. Regional arterial PO2 was adjusted by changing the inspired O2 concentration and atmospheric pressure.
# Polarographic hydrogen (H2)-sensitive microelectrodes were implanted stereotaxically in the substantia nigra (AP −5.3 mm, ML −2.4 mm to the bregma, depth 3.2 mm), caudate putamen nucleus (CPN) (AP +0.8 mm, ML −2.5 mm, depth 5.2 mm) and parietal cortex, for measurement of regional blood flow (Young, W., Stroke, 11:552-564 (1980); Heiss, W. D. and Traupett, H., Stroke, 12:161-167 (1981)). The microelectrodes were made from platinum wire and insulated with epoxy, with the exception of the tip (1 mm) which was coated with Nafion. For placement, the electrodes were mounted on a micromanipulator and the rat's head was immobilized in a Kopf stereotaxic frame. H2-sensitive electrodes were polarized to +400 mV against a distant reference electrode on the tail, and the polarographic current was measured using a low-impedance nA meter during and after the inhalation of hydrogen gas (2.5%) for 1 min. Both the hydrogen clearance curves and voltage for oxygen measurements were made using PC WINDAQ (software, DI-200 AC, Dataq Instruments, Inc., Akron, Ohio). Cerebral blood flow was calculated using the initial slope method (Young, W., Stroke, 11:552-564 (1980); Heiss, W. D. and Traupett, H., Stroke, 12:161-167 (1981)). Regional blood flow responses were monitored for 30 min. prior to and 30 min. following drug administration; hemoglobins were given at time 0.
# The cerebrovascular effects of SNO-Hb were measured in adult male Sprague-Dawley rats using O2 and H2 (blood flow)-sensitive microelectrodes that were placed stereotaxically in several regions of the brain as for Example 11.
# Comparative effects of SNO-Hb (●) and Hb (▪) (1 μmol/kg infused over 3 minutes) on local blood flow in substantia nigra (SN), caudate putamen nucleus, and parietal cortex are shown for three different conditions. […] Baseline blood flow was decreased by ˜10% under 100% O2+3 ATA as compared to 100% O2. n=7 for all data points. Values of tissue/microvascular PO2 ranged from 19-37 mm Hg in 21% O2; from 68-138 mm Hg in 100% O2; and from 365-538 mm Hg in 100%+3 ATA (Duke University Medical Center Hyperbaric Chambers).
# [4] = system: Rats; experiment: Hemodynamics (blood pressure) at different O2 concentrations; format: in vivo, rat; conditions: 1 μmol/kg infused over 1 minute; 10 min. post-infusion
# Method: Rats were anesthetized by intraperitoneal injection of pentobarbital, and the femoral arteries and veins accessed by local cutdown. The artery was then cannulated and the blood pressure monitored continuously using a P23 XL pressure transducer (Viggo Spectramed, Oxnard, Calif.) attached to a Gould recorder. The femoral vein was used for infusion of drugs and red blood cells containing SNO-Hb (1 ml over 1 min.) and an IBM PC (WINDAQ 200, Dataq Instruments, Inc.; Akron, Ohio) was used for data acquisition.
# Drugs were infused through the femoral vein at 1 μmol/kg infused over 1 minute after blood pressure had stabilized (approximately 30 min). Measurements shown (FIG. 11A) were taken at 10 min. post-infusion of drug. […] P<0.05 vs. SNO-Hb; *P<0.05, **P<0.01) vs. baseline blood pressure. n=5-6 for each drug.
# The hypotensive effects of SNO-RBCs were potentiated by pre-administration of the NO synthase inhibitor N^G-monomethyl-L-arginine (L-NMMA; 50 mg/kg). n=8 for each data point. Curves different by ANOVA (P<0.01), *P<0.05 vs. L-NMMA. The amount of hemolysis in these experiments was trivial. Infusion of the hemolysate had no effect on blood pressure.
# [5] = system: vascular ring; experiment: Vessel ring bioassay of SNO-Hb preparations, with or without glutathione
# Source text: Arterial red blood cells contain two physiologically important forms of hemoglobin: Hb(FeII)O2 and Hb(FeIII) (Antonini et al. (1971)). […] Such findings raise the possibility of functional consequences, perhaps influenced by the redox state of heme and its occupation by ligand.
# Details of the vessel ring bioassay have been published (Stamler, J. S., et al., Proc. Natl. Acad. Sci. USA 89:444-448 (1992)). SNO-Hb(FeII)O2 preparations were synthesized with 10-fold excess S-nitrosocysteine (CYSNO) over Hb(FeII)O2 protein (2% borate, 0.5 mM EDTA, ˜15 min incubation), after which desalting was performed across Sephadex G-25 columns. CYSNO was synthesized in 0.5 N HCl, 0.5 mM EDTA and then neutralized (1:1) in 1 M phosphate buffer containing 0.5 mM EDTA. […] The latter was synthesized by treatment of Hb(FeII)O2 with excess ferricyanide, followed by desalting across G-25 columns. SNO-Hb concentrations were verified spectroscopically and the S-nitrosothiol content was determined by the method of Saville (Stamler, J. S., et al., Proc. Nat. Acad. Sci. USA 89:444-448 (1992)). The S-NO/tetramer stoichiometry for both SNO-Hb preparations was ˜2. Oxidation of the heme was undetectable by uv-spectrophotometric methods.
# [6] = SNO-Hb decomposition and transnitrosation with glutathione; format: biochemical
# Method: The decomposition of SNO-Hb(FeII) is further accelerated by the presence of excess glutathione. Within the dead time of our measurements (˜15 sec) a major fraction of SNO-Hb(FeII) was converted to GSNO.
# Hbs in PBS (0.5 mM EDTA, pH 7.4) were incubated in air (oxy) or in a tonometer previously evacuated of O2 (deoxy). SNO-Hb(FeII)O2 decomposition was determined by the method of Saville (Saville, B., Analyst, 83:670-672 (1958)). Spontaneous decomposition of SNO-Hb(FeII) was followed spectrophotometrically by formation of Hb(FeII)NO. […] Rates of NO group transfer were too rapid to measure accurately by the standard methods used in this study.
# Data are presented as the amount of GSNO formed relative to the starting SNO-Hb concentration.
# Thiol/SNO-Hb exchange, forming GSNO, was verified chemically (Stamler, J. S., et al., Proc. Natl Acad. Sci. USA 89:444-448 (1992)) following trichloroacetic acid precipitation (n=5).
# [7] = system: Sprague-Dawley rat; experiment: Mean arterial pressure after femoral vein bolus of cell-free Hb and SNO-Hbs; format: in vivo
# Source text: Systemic administration of cell-free Hb results in hypertensive responses which have been attributed to NO scavenging by the heme (Vogel, W. M., et al., Am. J. Physiol. 251:H413-H420 (1986); Olsen, S. B., et al., Circulation 93:329-332 (1996)). To determine if SNO-Hb is free of this adverse affect, and to explore if in vitro mechanisms of NO release extend to the in vivo circumstance, we compared responses to Hb and SNO-Hb infused as a bolus into the femoral vein of anesthetized rats. […] Thus, the profiles of these compounds in vivo closely resemble those seen in vitro (FIG. 4A). […] These changes in mean blood pressure of ˜10% are on the order of those that differentiate normotension from hypertension in man, and in the therapeutic range of some antihypertensive regimens. […] The bioactivity of SNO-Hb in blood, where S—NO/heme stoichiometries approach 1:50,000, is a dramatic illustration of the resistence of this NO-related activity to Hb(Fe) inactivation.
# Administration of 2-200 nmol/kg Hb(FeII)O2 (as a bolus) into the femoral vein of a Sprague-Dawley rat is shown to increase mean arterial pressure in a dose-dependent manner. At 200 nmol/kg, mean arterial pressure increased by 25 mm Hg (20±3 mm Hg; n=4; P<0.05). Elevations in blood pressure reversed within 10-15 min. SNO-Hb(FeII)O2 infusions (over the same dose range) are shown to ameliorate Hb(FeII)O2-induced hypertension without causing overt changes in blood pressure. […] A fall in blood pressure was also seen with injection of erythrocytes containing SNO-Hb.
# Rats were anesthetized by intraperitoneal injection of pentobarbital and the femoral arteries and veins accessed by local cut down. The artery was then cannulated and the blood pressure monitored continuously using a Viggo Spectramed pressure transducer attached to a Gould recorder. An IBM PC (DATA Q Codas) was used for data acquisition.
compound,measurement,setting,value
N[C@@H](CCC(=O)N[C@@H](CSN=O)C(=O)NCC(=O)O)C(=O)O [S-nitrosoglutathione],formation of intraerythrocytic SNO-Hb,[1],not
same,O2 dependence of vasorelaxant effects,"[2]; 95%, 21%, <1% O2",largely independent of PO2
same,brain perfusion,[3]; 100% O2 and 100% O2+3 ATA,increased brain perfusion
same,change in blood pressure,[4],decreased blood pressure
SNO-Hb(FeIII): S-nitrosohemoglobin with heme oxidized to FeIII,effect of added glutathione on the dose-response,[5]; glutathione 100 μM in bioassay chambers,potentiates the dose-response
same,activity in vascular ring bioassay,[5]; no glutathione,vasodilator
same,rate of NO group transfer to glutathione,"[6]; SNO-Hb 100 μM, glutathione 10 mM, versus SNO-Hb(FeII)O2",more rapid
same,"mean arterial pressure, post",[7]; after 200 nmol/kg (highest dose),74±6 mm Hg
same,time for blood pressure to normalize,[7]; after hypotensive response,10 min
same,"mean arterial pressure, pre",[7]; before 200 nmol/kg,108±4 mm Hg
same,blood pressure response,"[7]; bolus, femoral vein, anesthetized rat",elicited hypotensive responses
S-nitrosohemoglobin [SNO-Hb],effect on tone of rings contracted with phenylephrine under hypoxia,"[2]; 1 μM, 6-7 torr",caused relaxations
same,effect of glutathione on vasorelaxant response,"[2]; 10 μM glutathione, greatest at <1% O2",potentiates the vasorelaxant response
same,concentration-effect responses in R-structure,[2]; 95% O2,virtually identical to those of native Hb
same,local cerebral blood flow,[3]; 21% O2,improved blood flow in all three regions of the brain tested
same,local cerebral blood flow,[3]; 100% O2,significantly attenuated
same,local cerebral blood flow,[3]; 100% O2+3 ATA,tended to decrease cerebral flow to similar extents
same,change in blood pressure,[4],significantly less of an increase in blood pressure than Hb
SNO-Hb(FeII): S-nitrosohemoglobin in the deoxy state,rate of RSNO decomposition (and transfer),"[6]; deoxy versus oxy state, PBS pH 7.4",much faster in the deoxy conformation
same,effect on vessel tone in T-structure,[2]; <1% O2 (˜6 torr),modest effect on baseline tone

# — patent US6916471B2, “Red blood cells loaded with S-nitrosothiol and uses therefor” (Duke University, priority 1995, dated 2005)
